Source: PubChem BioAssay AID248 (DTP/NCI, 2004)
“And” between values parts separate entries of the source, which are not always exact repeats. Identical values can stand only once. Toxic doses and inconclusive results are not listed. No stated cut-off is given here; in the data, active means T/C of 150% or more; inactive means T/C below 125%.

Tested on: L1210 leukemia ip in BDF1 mice, survival T/C
Assay: NCI In Vivo Anticancer Drug Screen. Data for tumor model L1210 Leukemia (intraperitoneal) in B6D2F1 (BDF1) mice
Details: endpoint: mean survival time, higher = longer survival
Outline: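 Each compound was tested against a transplantable tumor grown in mice. The endpoint was survival, with treated animals benchmarked against vehicle controls as a simple ratio.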

[1] = dose: 25.0 mg/kg/injection, schedule: Q01DX009 (ip), vehicle: Klucel (hydroxypropylcellulose) (HPC)
[2] = dose: 50.0 mg/kg/injection, schedule: Q01DX009 (ip), vehicle: Klucel (hydroxypropylcellulose) (HPC)
[3] = dose: 100.0 mg/kg/injection, schedule: Q01DX009 (ip), vehicle: Klucel (hydroxypropylcellulose) (HPC)
[4] = dose: 100.0 mg/kg/injection, schedule: Q04DX003 (ip), vehicle: Klucel (hydroxypropylcellulose) (HPC)
[5] = dose: 200.0 mg/kg/injection, schedule: Q04DX003 (ip), vehicle: Klucel (hydroxypropylcellulose) (HPC)
[6] = dose: 100.0 mg/kg/injection, schedule: Q04DX003 (ip), vehicle: saline with Tween-80
[7] = dose: 200.0 mg/kg/injection, schedule: Q04DX003 (ip), vehicle: saline with Tween-80
[8] = dose: 400.0 mg/kg/injection, schedule: Q04DX003 (ip), vehicle: saline with Tween-80
[9] = dose: 400.0 mg/kg/injection, schedule: Q04DX003 (ip), vehicle: Klucel (hydroxypropylcellulose) (HPC)
[10] = dose: 200.0 mg/kg/injection, schedule: Q01DX009 (ip), vehicle: Klucel (hydroxypropylcellulose) (HPC)
[11] = dose: 400.0 mg/kg/injection, schedule: Q01DX009 (ip), vehicle: Klucel (hydroxypropylcellulose) (HPC)
[12] = dose: 50.0 mg/kg/injection, schedule: Q01DX001 (ip), vehicle: saline
[13] = dose: 100.0 mg/kg/injection, schedule: Q01DX001 (ip), vehicle: saline
[14] = dose: 200.0 mg/kg/injection, schedule: Q01DX001 (ip), vehicle: saline
[15] = dose: 400.0 mg/kg/injection, schedule: Q01DX001 (ip), vehicle: saline
[16] = dose: 12.5 mg/kg/injection, schedule: Q01DX009 (ip), vehicle: saline with Tween-80

Measured: T/C

COc1ccccc1N1CCN(CCCC(=O)c2ccc(F)cc2)CC1
inactive: dose: 12.5 mg/kg/injection, schedule: Q01DX009 (ip), vehicle: Klucel (hydroxypropylcellulose) (HPC) 96 % of control | [1] 105 % of control | dose: 25.0 mg/kg/injection, schedule: Q04DX003 (ip), vehicle: Klucel (hydroxypropylcellulose) (HPC) 108 % of control | [2] 105 % of control | dose: 50.0 mg/kg/injection, schedule: Q04DX003 (ip), vehicle: Klucel (hydroxypropylcellulose) (HPC) 111 % of control | [3] 122 % of control | [4] 116 % of control | [5] 111 % of control

O=C1CSCc2c1ccc1ccccc21
inactive: [6] 106 % of control | [7] 100 % of control | [8] 108 % of control

O=C(O)CSCc1ccc([N+](=O)[O-])cc1
inactive: [4] 100 % of control | [5] 100 % of control | [9] 100 % of control

O=c1cc(-c2ccccc2)cc(-c2ccccc2)o1
inactive: [3] 102 % of control | [4] 96 % of control | [10] 96 % of control | [5] 100 % of control | [11] 96 % of control | [9] 94 % of control

CCN(CC)C(=O)Nc1ccccc1F
inactive: [3] 104 % of control | [10] 98 % of control | [11] 119 % of control

COc1cc(/C=N/NC(=O)CNC(=O)c2ccccc2)ccc1O
inactive: dose: 100.0 mg/kg/injection, schedule: Q01DX009 (ip), vehicle: saline with Tween-80 102 % of control | dose: 200.0 mg/kg/injection, schedule: Q01DX009 (ip), vehicle: saline with Tween-80 102 % of control | dose: 400.0 mg/kg/injection, schedule: Q01DX009 (ip), vehicle: saline with Tween-80 101 % of control

ClC(Cc1ccccc1)c1ccccc1 (stereo not given)
inactive: [12] 97 % of control | [13] 97 % of control | [14] 97 % of control | [15] 97 % of control

COc1cccc2c1C(=O)c1c(O)c3c(c(O)c1C2=O)CC(O)(C(C)=O)CC3OC1CC(NC(=S)Nc2ccccc2)C(O)C(C)O1 (stereo not given)
inactive: dose: 2.0 mg/kg/injection, schedule: Q04DX003 (ip), vehicle: water 105 % of control | dose: 3.12 mg/kg/injection, schedule: Q01DX009 (ip), vehicle: saline with Tween-80 117 % of control | dose: 4.0 mg/kg/injection, schedule: Q04DX003 (ip), vehicle: water 111 % of control | dose: 6.25 mg/kg/injection, schedule: Q01DX009 (ip), vehicle: saline with Tween-80 122 % of control | dose: 8.0 mg/kg/injection, schedule: Q04DX003 (ip), vehicle: water 106 % of control | [16] 123 % of control | dose: 16.0 mg/kg/injection, schedule: Q04DX003 (ip), vehicle: water 120 % of control and 123 % of control | dose: 32.0 mg/kg/injection, schedule: Q04DX003 (ip), vehicle: water 123 % of control | dose: 64.0 mg/kg/injection, schedule: Q04DX003 (ip), vehicle: water 118 % of control | dose: 125.0 micrograms/kg/injection, schedule: Q04DX003 (ip), vehicle: water 98 % of control | dose: 250.0 micrograms/kg/injection, schedule: Q04DX003 (ip), vehicle: water 103 % of control | dose: 500.0 micrograms/kg/injection, schedule: Q04DX003 (ip), vehicle: water 107 % of control | dose: 1000.0 micrograms/kg/injection, schedule: Q04DX003 (ip), vehicle: water 102 % of control | dose: 2000.0 micrograms/kg/injection, schedule: Q04DX003 (ip), vehicle: water 104 % of control

COc1ccc(CN2CCCN(Cc3ccc(OC)cc3OC)C2c2cc(Cl)cc(Cl)c2O)c(OC)c1
inactive: [12] 92 % of control | [13] 97 % of control | [14] 92 % of control | [15] 90 % of control

Oc1c(-c2ccccc2)c(-c2ccccc2)cc(-c2ccccc2)c1-c1ccccc1
inactive: dose: 100.0 mg/kg/injection, schedule: Q01DX001 (ip), vehicle: saline with Tween-80 102 % of control | dose: 200.0 mg/kg/injection, schedule: Q01DX001 (ip), vehicle: saline with Tween-80 94 % of control | dose: 400.0 mg/kg/injection, schedule: Q01DX001 (ip), vehicle: saline with Tween-80 88 % of control

CNC(=O)Oc1ccc2ccccc2c1
inactive: dose: 100.0 mg/kg/injection, schedule: Q01DX009 (ip), vehicle: other 101 % of control | dose: 200.0 mg/kg/injection, schedule: Q01DX009 (ip), vehicle: other 104 % of control | dose: 400.0 mg/kg/injection, schedule: Q01DX009 (ip), vehicle: other 93 % of control

Cc1ccc(CNC(=O)C2CCCCC2C(=O)O)cc1 (stereo not given)
inactive: [3] 100 % of control | [10] 96 % of control | [11] 93 % of control

CC1(C)C=CN2C(=O)C3=CCCN3C(=O)C2CC12Nc1ccccc1C2=O (stereo not given)
inactive: dose: 100.0 mg/kg/injection, schedule: Q04DX003 (ip), vehicle: other 111 % of control | dose: 200.0 mg/kg/injection, schedule: Q04DX003 (ip), vehicle: other 103 % of control | dose: 400.0 mg/kg/injection, schedule: Q04DX003 (ip), vehicle: other 93 % of control

N#CC(C#N)=C1Cc2ccccc2C1
inactive: dose: 50.0 mg/kg/injection, schedule: Q04DX003 (ip), vehicle: saline with Tween-80 109 % of control | [6] 109 % of control

CCOC(=O)C(CC(OCC)OCC)C1=NC(C)(C)CC(C)O1 (stereo not given)
inactive: dose: 100.0 mg/kg/injection, schedule: Q01DX001 (ip), vehicle: Klucel (hydroxypropylcellulose) (HPC) 105 % of control | dose: 200.0 mg/kg/injection, schedule: Q01DX001 (ip), vehicle: Klucel (hydroxypropylcellulose) (HPC) 89 % of control | dose: 400.0 mg/kg/injection, schedule: Q01DX001 (ip), vehicle: Klucel (hydroxypropylcellulose) (HPC) 100 % of control

CCOC(=O)C(CCN1CCCCC1)c1cccc2ccccc12 (stereo not given)
inactive: [4] 100 % of control | [5] 88 % of control

Cc1c2ccnc(-c3ccc(F)cc3)c2cc2c1[nH]c1ccccc12
inactive: dose: 16.0 mg/kg/injection, schedule: Q01DX005 (ip), vehicle: saline 100 % of control | dose: 32.0 mg/kg/injection, schedule: Q01DX005 (ip), vehicle: saline 100 % of control | dose: 64.0 mg/kg/injection, schedule: Q01DX005 (ip), vehicle: saline 105 % of control | dose: 128.0 mg/kg/injection, schedule: Q01DX005 (ip), vehicle: saline 103 % of control

COc1cc(Br)c(CC(=O)c2cn(C(=O)Cc3cc(OC)c(OC)cc3Br)c3ccc(Br)cc23)cc1OC
inactive: [12] 106 % of control | [13] 96 % of control | [14] 102 % of control | [15] 96 % of control

Cc1ccc(S(=O)(=O)ON2C(=O)c3cccc4cc([N+](=O)[O-])cc(c34)C2=O)cc1
inactive: [13] 95 % of control | [14] 101 % of control | [15] 104 % of control

C/C(=C\C(=O)O)CC(=O)O
inactive: dose: 25.0 mg/kg/injection, schedule: Q01DX009 (ip), vehicle: water 88 % of control | dose: 25.0 mg/kg/injection, schedule: Q04DX003 (ip), vehicle: water 95 % of control and 105 % of control | dose: 50.0 mg/kg/injection, schedule: Q04DX003 (ip), vehicle: water 104 % of control and 89 % of control | dose: 100.0 mg/kg/injection, schedule: Q01DX009 (ip), vehicle: water 88 % of control | dose: 100.0 mg/kg/injection, schedule: Q04DX003 (ip), vehicle: water 101 % of control and 102 % of control | dose: 200.0 mg/kg/injection, schedule: Q04DX003 (ip), vehicle: water 93 % of control

S=C(NCc1ccc(Cl)cc1Cl)Nc1ccccc1
inactive: [1] 101 % of control | [2] 98 % of control | [3] 103 % of control and 109 % of control | [10] 88 % of control

CN1C(=S)c2ccccc2S1(=O)=O
inactive: [6] 106 % of control | [7] 94 % of control | [8] 92 % of control

CCCCCCCCCCC(N)P(=O)(O)O (stereo not given)
inactive: [16] 103 % of control | dose: 25.0 mg/kg/injection, schedule: Q01DX009 (ip), vehicle: saline with Tween-80 101 % of control | dose: 50.0 mg/kg/injection, schedule: Q01DX009 (ip), vehicle: saline with Tween-80 105 % of control | dose: 300.0 mg/kg/injection, schedule: Q01DX001 (ip), vehicle: saline 98 % of control
